Data published in patent US20200237700A1, “METHODS OF REDUCING OR PREVENTING OXIDATION OF SMALL DENSE LDL OR MEMBRANE POLYUNSATURATED FATTY ACIDS” (Amarin Pharmaceuticals Ireland Limited, priority 2015, published 2020).

Key:
[1] = Small angle x-ray diffraction of glucose-treated model membranes, cholesterol domain peak intensity (Example 4); format: physicochemical; conditions: 96-hour time point; vs vehicle or vitamin E treatments; 1:30; glucose 200 mg/dL
Procedure: After centrifugal orientation, sample supernatants were aspirated and aluminum foil substrates, each supporting a single membrane pellet, were removed from the sedimentation cells. […] All x-ray diffraction experiments were conducted at 20° C., 74% relative humidity.
Oriented membrane samples were aligned at grazing incidence with respect to a collimated, mono-chromatic CuKα x-ray beam (Kα1 and Kα2 unresolved; λ=1.54 Å) produced by a Rigaku Rotaflex RU-200, high-brilliance microfocus generator (Rigaku-MSC, The Woodlands, Tex.) as previously described (Mason et al., Biophys. J., vol. 55(4), pages 769-778 (1989)).
Routines written in Origin 8.6 (OriginLab Corporation, Northampton, Mass.) were used to determine total peak area (associated with all diffraction peaks in a given pattern) against which the second-order cholesterol domain peak was normalized.

[2] = LOOH formation in glucose-treated model membranes, EPA versus EA and ETE (Example 5); format: biochemical; conditions: 72 and 96 hr
Procedure: An experiment was conducted to compare the ability of EPA to prevent lipid hydroperoxide formation in model membranes treated with glucose to two other 20-carbon fatty acids: eicosanoic acid (“EA,” also referred to as arachidic acid, C20:0) and eicosatrienoic acid (“ETE,” C20:3, n−3). All MLV samples were subjected to time-dependent autoxidation by incubating at 37° C. in an uncovered, shaking water bath. This method allows lipid peroxidation to occur gradually without requiring the use of exogenous initiators. Small aliquots (5-100 μL) of each sample were removed, immediately following MLV preparation (0 hr) and after exposing samples to oxidative conditions for 72 or 96 hr, and combined with 1.0 mL of activated CHOD-iodide color reagent. Aliquot volume was reduced with each successive time point to ensure that spectrophotometric readings were within the optimal adsorption range. Test samples were covered and incubated in darkness at room temperature for at least 4 hr. Sample absorbances were then measured against a CHOD blank at 365 nm using a Beckman DU-640 spectrophotometer. The CHOD colorimetric assay is based on the oxidation of iodide (I^−) by lipid hydroperoxide (LOOH) to form triiodide (I3^−), the quantity of which is directly proportional to the amount of LOOH present in the lipid sample. The molar absorptivity (E) of I3^− is 2.46×10^4 M^−1 cm^−1 at 365 nm.

human sdLDL = experiment: Copper-induced sdLDL oxidation, TBARS after 2 hr (Example 6); format: biochemical; conditions: 10 μM CuSO4
Procedure: An experiment to study the antioxidant effect of EPA in small dense […] performed. […] Vitamin E (α-tocopherol) was purchased from Sigma-Aldrich and prepared in ethanol at 1.0 mM (ε=3.06×10^4 M^-1 cm^-1 at 294 nm) just prior to experimental use. All test compounds were further diluted in ethanol or aqueous buffer as needed. Venous blood was collected from healthy volunteers into vacutainer tubes containing sodium EDTA. Plasma was separated by centrifugation at 3000 g for 25 min at 4° C. and adjusted to a density of 1.020 g/mL with KBr. Triglyceride-rich lipoproteins (TGRL) and LDL fractions were then isolated by sequential centrifugation at 70,000 rpm at 4° C. in a Beckman LE-80 ultracentrifuge using a Beckman 50.4Ti rotor (Beckman Coulter, Inc., Fullerton, Calif.). The TGRL fraction (with a relative density of <1.020) was aspirated from the top of the centrifugate and discarded, leaving an LDL-enriched […] relative density of 1.020 to 1.063). […] The sdLDL subfraction was retained for additional experimentation. Plasma and lipoprotein fractions were maintained at 4° C. and protected from excessive exposure to light. Prior to oxidation experiments, EDTA was removed from the lipoprotein fraction using PD-10 desalting columns (GE Healthcare, Piscataway N.J.). After equilibration of the column with phosphate buffered saline (PBS), 2.5 mL of the lipoprotein fraction was loaded on the column and the flow-through discarded. The lipoprotein was then eluted with 3 mL of PBS. The LDL fractions were further diluted with PBS to obtain a 100 μg/mL apoB100 concentration. […] Data are presented as mean±S.D. for (N) separate samples or treatment groups. Differences between groups were analyzed using the two-tailed, Student's t-test (for comparisons between only two groups) or ANOVA followed by Dunnett or Student-Newman-Keuls multiple comparisons post-hoc analysis (for comparisons between three or more groups).

[3] = Lipid hydroperoxide (LOOH) formation in cholesterol-enriched model membranes under autoxidation, CHOD-iodide assay (Example 3); format: biochemical; conditions: EPA to lipids 1:30, C/P 0.6:1
Procedure: An experiment was conducted to test EPA in model membranes enriched with PUFAs and cholesterol at levels that reproduce disease or high CV-risk conditions (i.e., hypercholesterolemia). […] Levels of lipid hydroperoxides were also measured in cholesterol-enriched membrane prepared in the absence of EPA as a control. […] CHOD-iodide color reagent (stock) was prepared according to a procedure modified from El-Saadani et […], Goher […], Jurgens G. A spectrophotometric assay for lipid peroxides in serum lipoproteins using commercially available reagent. J. Lipid. […] Membrane samples consisting of DLPC±cholesterol were prepared as follows. Component lipids (in chloroform) were transferred to 13×100 mm test tubes and shell-dried under a steady stream of nitrogen gas while vortex mixing. The lipid was co-dried with EPA. Residual solvent was removed by drying for a minimum of 3 h under vacuum. […] Absorbances were measured against a CHOD blank at 365 nm using a Beckman DU-640 spectrophotometer. The CHOD colorimetric assay is based on the oxidation of iodide (I^-) by lipid hydroperoxides (LOOH) and proceeds according to the following reaction scheme: […]3^- The quantity of triiodide anion (I3^-) liberated in this reaction is directly proportional to the amount of lipid hydroperoxides present in the membrane sample.

CC/C=C\C/C=C\C/C=C\C/C=C\C/C=C\CCCC(=O)O [EPA, cis-5,8,11,14,17-eicosapentaenoic acid]
inhibited relative cholesterol domain peak intensity [1]: more than 99% | LOOH formation compared to vehicle only, glucose only, glucose and EA, glucose and ETE [2]: significantly less LOOH formation | reduced TBARS levels compared to vehicle-treated controls (human sdLDL; 1.0 μM): 13% | reduced TBARS levels compared to vehicle-treated controls (human sdLDL; 10.0 μM): 57% | LOOH levels ([3]; after autoxidation 37° C. 72 hours): 728 ± 30 µM | reduced LOOH levels compared to untreated controls ([3]; autoxidation 37° C. 72 hours): greater than 90%
